In the assay the test system is chicken roundworm [鶏回虫(^5earidia galli)]. The experiment in a line: Anthelmintic test: single oral dose to chickens infected with chicken roundworm; worm expulsion rate over 7 days. Type of assay: in vivo, chicken roundworm (^5earidia galli). Conditions: for worm expulsion rate (mean): single oral dose (gelatin capsule), n = 3, 7 days, untreated control 0%.

For `[C-]#[N+]C(=Cc1ccc(O)cc1)C(=Cc1ccc(OC)cc1)[N+]#[C-]` [キサントシリンXモノメチルエーテル, 1(p−ヒドロキシフェニル)−2、3−ジイソシフノー4−(p−メトキシフェニル)−ブタ−1,3−ツエン], the “worm expulsion rate (mean)” value was 8% (5 mg/kg); 69.7% (10 mg/kg); 100% (20 mg/kg, completely expelled). For the same compound, the anthelmintic effect result (doses of 10 mg/kg to 20 mg/kg, single oral dose) is on record as “確実な駆虫効果が確認された”. Also, the “time after dosing within which most worms were expelled” value (most of the medicated groups, single oral dose 5-20 mg/kg) is given as ≤ 2 days.

For the origin of these results see patent JPH0240324A, “キサントシリンxモノメチルエーテルを含有する駆虫剤” (Meiji Seika Kaisha Ltd, priority 1988, dated 1990).
